Test results: patent publication US12516064B2, “Tetrahydropyridopyrimidines and related analogs for inhibiting YAP/TAZ-TEAD” (THE KATHOLIEKE UNIVERSITEIT LEUVEN, priority 2022, dated 2026)

These compounds were tested on YAP/TAZ-TEAD transcription (assay: Reporter gene assay for measuring the inhibition of YAP/TAZ-TEAD transcription). Details: Homo sapiens, HEK-293T; Hek293T cells transiently transfected with TEAD-responsive element luciferase reporter; 24 hours incubation.
Assay type: cell-based
Procedure: Hek293T cells are cultured in DMEM supplemented with 10% fetal bovine serum, Sodium pyruvate, Sodium bicarbonate, L-glutamine. The cells are harvested and transiently transfected with TEAD-responsive element luciferase reporter. Transfected cells are plated in 384-wells plate containing pre-diluted compounds. After 24 hours incubation at 37° C./5% CO2, assay plates were cooled down to RT and levelled to an equal volume per well, prior to the addition of 25 uL luciferase substrate SteadyLite (Perkin Elmer)/well. The plate was shaken for 10 min at 600 rpm, centrifuged for 1 min at 500 rpm and measured with an Envision reader (PerkinElmer). The amount of relative light units produced by the TEAD reporter is used to calculated percent of inhibition.
The percent of reporter inhibition was calculated in the presence of a positive control inhibitor (100% inhibition) versus a condition with the presence of the vehicle basal activity of the reporter (0% inhibition). The ability of a test compound to inhibit this activity was determined as: Percentage inhibition=[1−((RLU determined in the presence of vehicle−RLU determined for sample with test compound present) divided by (RLU determined in the presence of vehicle−RLU determined for sample with positive control inhibitor))]*100 The activities of example compounds tested are depicted in Table 8. The activity ranges A, B and C refer to IC50 values in the reporter gene assay as follows: “A”: EC50<1 μM; “B”: 1 μM≤EC50≤3.0 μM and “C”: EC50>3.0 μM, NT=not tested.
CNS(=O)(=O)CCN1Cc2nc(-c3ccccc3)nc(-c3ccn(Cc4cccnc4)n3)c2C1 [Cpd. No. 31, N-methyl-2-(2-phenyl-4-(1-(pyridin-3-ylmethyl)-1H-pyrazol-3-yl)-5,7-dihydro-6H-pyrrolo[3,4-d]pyrimidin-6-yl)ethane-1-sulfonamide] was tested, and the EC50 was 1000 to 3000 nM.
C=CC(=O)N1CCc2c(nc(-c3ccc(F)cc3)nc2-c2ccn(C(F)F)n2)C1 [Cpd. No. 70, 1-(4-(1-(difluoromethyl)-1H-pyrazol-3-yl)-2-(4-fluorophenyl)-5,8-dihydropyrido[3,4-d]pyrimidin-7(6H)-yl)prop-2-en-1-one] gave an EC50 of less than 1000 nM.
Compound C=CC(=O)N1CCc2cnc(-c3ccccc3)nc2C1 [Cpd. No. 68, 1-(2-phenyl-5,8-dihydropyrido[3,4-d]pyrimidin-7(6H)-yl)prop-2-en-1-one] has an EC50 of less than 1000 nM.
Compound O=S(=O)(F)CCN1Cc2nc(-c3ccccc3)nc(-c3ccn(Cc4cccnc4)n3)c2C1 [Cpd. No. 29, 2-(2-phenyl-4-(1-(pyridin-3-ylmethyl)-1H-pyrazol-3-yl)-5,7-dihydro-6H-pyrrolo[3,4-d]pyrimidin-6-yl)ethane-1-sulfonyl fluoride] has an EC50 greater than 3000 nM.
C=CC(=O)N1CCc2c(nc(-c3ccccc3)nc2-c2cnn(C(F)F)c2)C1 [Cpd. No. 61, 1-(4-(1-(difluoromethyl)-1H-pyrazol-4-yl)-2-phenyl-5,8-dihydropyrido[3,4-d]pyrimidin-7(6H)-yl)prop-2-en-1-one] was tested, and the EC50 was 1000 to 3000 nM.
With CCC(=O)N1Cc2nc(Cc3ccccc3)nc(-c3ccn(Cc4cccnc4)n3)c2C1 [Cpd. No. 18, 1-(2-benzyl-4-(1-(pyridin-3-ylmethyl)-1H-pyrazol-3-yl)-5,7-dihydro-6H-pyrrolo[3,4-d]pyrimidin-6-yl)propan-1-one] the EC50 was 1000 to 3000 nM.
For C=CC(=O)N1CCc2c(nc(-c3ccccc3)nc2-c2ccccc2)C1 [Cpd. No. 64, 1-(2,4-diphenyl-5,8-dihydropyrido[3,4-d]pyrimidin-7(6H)-yl)prop-2-en-1-one], the EC50 was less than 1000 nM.
In the case of C=CC(=O)N1CCc2c(nc(-c3ccccc3)nc2-c2ccnn2C)C1 [Cpd. No. 62, 1-(4-(1-methyl-1H-pyrazol-5-yl)-2-phenyl-5,8-dihydropyrido[3,4-d]pyrimidin-7(6H)-yl)prop-2-en-1-one], the EC50 is reported as 1000 to 3000 nM.
CCC(=O)N1CCc2c(nc(-c3ccccc3)nc2-c2ccn(C)n2)C1 [Cpd. No. 40, 1-(4-(1-methyl-1H-pyrazol-3-yl)-2-phenyl-5,8-dihydropyrido[3,4-d]pyrimidin-7(6H)-yl)propan-1-one] gave an EC50 of 1000 to 3000 nM.
For C=CC(=O)NC1CCc2nc(-c3ccccc3)nc(-c3ccn(Cc4cccnc4)n3)c2C1 (centres unmarked) [Cpd. No. 9, N-(2-phenyl-4-(1-(pyridin-3-ylmethyl)-1H-pyrazol-3-yl)-5,6,7,8-tetrahydroquinazolin-6-yl)acrylamide], the EC50 was greater than 3000 nM.
C=CC(=O)N1CCc2c(nc(-c3ccccc3)nc2-c2ccncc2)C1 [Cpd. No. 66, 1-(2-phenyl-4-(pyridin-4-yl)-5,8-dihydropyrido[3,4-d]pyrimidin-7(6H)-yl)prop-2-en-1-one] was tested, and the EC50 was 1000 to 3000 nM.
CCC(=O)N1CCc2c(nc(-c3ccc(C(F)(F)F)cc3)nc2-c2cnn(C)n2)C1 [Cpd. No. 93, 1-(4-(2-methyl-2H-1,2,3-triazol-4-yl)-2-(4-(trifluoromethyl)phenyl)-5,8-dihydropyrido[3,4-d]pyrimidin-7(6H)-yl)propan-1-one] was tested, and the EC50 was 1000 to 3000 nM.
In the case of O=S(=O)(F)CCN1Cc2nc(Cc3ccccc3)nc(-c3ccn(Cc4cccnc4)n3)c2C1 [Cpd. No. 30, 2-(2-benzyl-4-(1-(pyridin-3-ylmethyl)-1H-pyrazol-3-yl)-5,7-dihydro-6H-pyrrolo[3,4-d]pyrimidin-6-yl)ethane-1-sulfonyl fluoride], the EC50 is reported as greater than 3000 nM.
With Cn1ccc(-c2nc(-c3ccccc3)nc3c2CCC(N)C3)n1 (centres unmarked) [Cpd. No. 5, 4-(1-methyl-1H-pyrazol-3-yl)-2-phenyl-5,6,7,8-tetrahydroquinazolin-7-amine] the EC50 was greater than 3000 nM.
CCC(=O)N1Cc2nc(Cc3ccccc3)nc(-c3ccn(C)n3)c2C1 [Cpd. No. 21, 1-(2-benzyl-4-(1-methyl-1H-pyrazol-3-yl)-5,7-dihydro-6H-pyrrolo[3,4-d]pyrimidin-6-yl)propan-1-one] was tested, and the EC50 was 1000 to 3000 nM.
CCC(=O)N1CCc2c(nc(Cc3ccc(F)cc3)nc2-c2ccn(C)n2)C1 [Cpd. No. 42, 1-(2-(4-fluorobenzyl)-4-(1-methyl-1H-pyrazol-3-yl)-5,8-dihydropyrido[3,4-d]pyrimidin-7(6H)-yl)propan-1-one] gave an EC50 greater than 3000 nM.
CCC(=O)N1CCc2c(nc(Cc3ccc(C(F)(F)F)cc3)nc2-c2ccn(C)n2)C1 [Cpd. No. 47, 1-(4-(1-methyl-1H-pyrazol-3-yl)-2-(4-(trifluoromethyl)benzyl)-5,8-dihydropyrido[3,4-d]pyrimidin-7(6H)-yl)propan-1-one] showed an EC50 greater than 3000 nM.
CCC(=O)N1CCc2c(nc(Cc3cccc(C(F)(F)F)c3)nc2-c2ccn(C)n2)C1 [Cpd. No. 48, 1-(4-(1-methyl-1H-pyrazol-3-yl)-2-(3-(trifluoromethyl)benzyl)-5,8-dihydropyrido[3,4-d]pyrimidin-7(6H)-yl)propan-1-one] gave an EC50 of 1000 to 3000 nM.
For C=CC(=O)N1CCc2c(nc(-c3ccccc3)nc2-c2cnn(C(C)C)c2)C1 [Cpd. No. 57, 1-(4-(1-isopropyl-1H-pyrazol-4-yl)-2-phenyl-5,8-dihydropyrido[3,4-d]pyrimidin-7(6H)-yl)prop-2-en-1-one], the EC50 was 1000 to 3000 nM.
Compound Cn1ccc(-c2nc(-c3ccccc3)nc3c2CC(N)CC3)n1 (centres unmarked) [Cpd. No. 1, 4-(1-methyl-1H-pyrazol-3-yl)-2-phenyl-5,6,7,8-tetrahydroquinazolin-6-amine] has an EC50 greater than 3000 nM.
Compound CC(=O)NCC(=O)N1Cc2nc(-c3ccccc3)nc(-c3ccn(Cc4cccnc4)n3)c2C1 [Cpd. No. 26, N-(2-oxo-2-(2-phenyl-4-(1-(pyridin-3-ylmethyl)-1H-pyrazol-3-yl)-5,7-dihydro-6H-pyrrolo[3,4-d]pyrimidin-6-yl)ethyl)acetamide] has an EC50 greater than 3000 nM.
C=CC(=O)N1Cc2nc(Cc3ccccc3)nc(-c3ccn(Cc4cccnc4)n3)c2C1 [Cpd. No. 17, 1-(2-benzyl-4-(1-(pyridin-3-ylmethyl)-1H-pyrazol-3-yl)-5,7-dihydro-6H-pyrrolo[3,4-d]pyrimidin-6-yl)prop-2-en-1-one] showed an EC50 of less than 1000 nM.
With Cn1ccc(-c2nc(-c3ccc(C(F)(F)F)cc3)nc3c2CCN(S(C)(=O)=O)C3)n1 [Cpd. No. 79, 4-(1-methyl-1H-pyrazol-3-yl)-7-(methylsulfonyl)-2-(4-(trifluoromethyl)phenyl)-5,6,7,8-tetrahydropyrido[3,4-d]pyrimidine] the EC50 was 1000 to 3000 nM.
With CCC(=O)N1CCc2c(nc(-c3ccc(C(F)(F)F)cc3)nc2-c2ccn(C)n2)C1 [Cpd. No. 85, 1-(4-(1-methyl-1H-pyrazol-3-yl)-2-(4-(trifluoromethyl)phenyl)-5,8-dihydropyrido[3,4-d]pyrimidin-7(6H)-yl)propan-1-one] the EC50 was less than 1000 nM.
Work on Cn1ccc(-c2nc(Cc3ccccc3)nc3c2CN(S(C)(=O)=O)C3)n1 [Cpd. No. 22, 2-benzyl-4-(1-methyl-1H-pyrazol-3-yl)-6-(methylsulfonyl)-6,7-dihydro-5H-pyrrolo[3,4-d]pyrimidine] yielded an EC50 greater than 3000 nM.
CCC(=O)NC1CCc2c(nc(-c3ccccc3)nc2-c2ccn(C)n2)C1 (centres unmarked) [Cpd. No. 7, N-(4-(1-methyl-1H-pyrazol-3-yl)-2-phenyl-5,6,7,8-tetrahydroquinazolin-7-yl)propionamide] gave an EC50 greater than 3000 nM.
Work on CS(=O)(=O)NCC(=O)N1Cc2nc(Cc3ccccc3)nc(-c3ccn(Cc4cccnc4)n3)c2C1 [Cpd. No. 28, N-(2-(2-benzyl-4-(1-(pyridin-3-ylmethyl)-1H-pyrazol-3-yl)-5,7-dihydro-6H-pyrrolo[3,4-d]pyrimidin-6-yl)-2-oxoethyl)methanesulfonamide] yielded an EC50 greater than 3000 nM.
Compound C/C=C/C(=O)N1CCc2c(nc(C3CCC(F)(F)CC3)nc2-c2ccn(C)n2)C1 [Cpd. No. 95, (E)-1-(2-(4,4-difluorocyclohexyl)-4-(1-methyl-1H-pyrazol-3-yl)-5,8-dihydropyrido[3,4-d]pyrimidin-7(6H)-yl)but-2-en-1-one] has an EC50 of less than 1000 nM.
In the case of C=CC(=O)NC1CCc2c(nc(-c3ccccc3)nc2-c2ccn(Cc3cccnc3)n2)C1 (centres unmarked) [Cpd. No. 11, N-(2-phenyl-4-(1-(pyridin-3-ylmethyl)-1H-pyrazol-3-yl)-5,6,7,8-tetrahydroquinazolin-7-yl)acrylamide], the EC50 is reported as 1000 to 3000 nM.
Cn1ccc(-c2nc(-c3ccccc3)nc3c2CCC(NS(C)(=O)=O)C3)n1 (centres unmarked) [Cpd. No. 8, N-(4-(1-methyl-1H-pyrazol-3-yl)-2-phenyl-5,6,7,8-tetrahydroquinazolin-7-yl)methanesulfonamide] gave an EC50 greater than 3000 nM.
In the case of CC(=O)NCC(=O)N1Cc2nc(Cc3ccccc3)nc(-c3ccn(Cc4cccnc4)n3)c2C1 [Cpd. No. 27, N-(2-(2-benzyl-4-(1-(pyridin-3-ylmethyl)-1H-pyrazol-3-yl)-5,7-dihydro-6H-pyrrolo[3,4-d]pyrimidin-6-yl)-2-oxoethyl)acetamide], the EC50 is reported as greater than 3000 nM.
Work on CS(=O)(=O)NC1CCc2c(nc(-c3ccccc3)nc2-c2ccn(Cc3cccnc3)n2)C1 (centres unmarked) [Cpd. No. 13, N-(2-phenyl-4-(1-(pyridin-3-ylmethyl)-1H-pyrazol-3-yl)-5,6,7,8-tetrahydroquinazolin-7-yl)methanesulfonamide] yielded an EC50 greater than 3000 nM.
